Laboratory results published in the NIST ThermoML archive (doi:10.1016/j.fluid.2014.05.034).
± gives the expanded uncertainty stated by the source.

Experiments:
[1] = for Normal melting temperature: Crystal; for mass density: 101.33 kPa, Liquid, Vibrating tube method
[2] = Molar enthalpy of transition or fusion; details: Crystal; DSC

Compound | Normal melting temperature ([1]; visual observation) [°C] | also measured
CCCCCC[n+]1cccc2ccccc21.O=S(=O)([N-]S(=O)(=O)C(F)(F)F)C(F)(F)F [1-hexylquinolinium bis(trifluoromethylsulfonyl)amide] | 45 ± 1.1 | –
C[n+]1ccn(CC#N)c1.N#Cc1nc(C(F)(F)F)[n-]c1C#N | 93.0 ± 1.1 | Normal melting temperature ([1]; DTA): 92.7 ± 0.5 °C; Molar enthalpy of transition or fusion [2]: 7.36 ± 0.213 kcal/mol
CC[N+]1(C)CCCCC1.O=S(=O)([N-]S(=O)(=O)C(F)(F)F)C(F)(F)F | 82.8 ± 1.1 | –
OCCc1ccccc1 [2-phenylethanol] | – | mass density ([1]; 293.15 K): 1019 ± 1 kg/m3
CCCCCC[n+]1ccc2ccccc2c1.O=S(=O)([N-]S(=O)(=O)C(F)(F)F)C(F)(F)F [N-hexylisoquinolinium bis(trifluoromethylsulfonyl)imide] | 55.2 ± 1.1 | –
CCCCn1cc[n+](C)c1.N#CC1=NC(C(F)(F)F)=NC1=C=[N-] | – | mass density ([1]; 298.15 K): 1199.65 ± 5 kg/m3
